Results from paper PMC9837764 (Nature Communications, 2023).
“And” between values parts separate entries of the source, which are not always exact repeats. Equal entries are not always repeated. Where two headings read alike, the source gives them in different places.

Legend:
[1] = Pharmacokinetics in mouse plasma; format: in vivo, CD1 mice (Mus musculus); parameters: MB-905 level (Fig5A): unit not given here; conditions: for MB-905 level (Fig5A): individual animals; for k el: read-out: Ke (converted)
in vivo = conditions: both sexes, mouse, mice
Protocol: For the MTD assay (OECD 425), mice (3 animals of each sex/group) were divided into five experimental groups, and the up and down procedure was applied to which 175 mg/kg was used as the first dose. […] Mortality, morbidity, body weight, food consumption, and general and detailed clinical signs of toxicity were evaluated. At necropsy, vital (brain, heart, liver, spleen, kidneys and adrenal glands) and reproductive organs (ovaries, testicles, and epididymis) were carefully removed, weighed and stored for further analysis (if necessary).

SARS-CoV-2 gamma VoC = system: SARS-CoV-2 gamma VoC; parameters: species or system K18-hACE2 mice (Mus musculus); conditions: mouse, in vivo
[2] = system: Salmonella typhimurium TA 100
[3] = male, Sprague-Dawley, rat, in vivo, 250 mg/kg
[4] = both sexes, CD1, mouse, plasma, iv, mice, 3 mg/kg (i.v.)
[5] = both sexes, CD1, mouse, plasma, po, mice, 30 mg/kg (p.o.)
[6] = both sexes, CD1, mouse, plasma, po, mice, 550 mg/kg (p.o.)

c1coc(CNc2ncnc3[nH]cnc23)c1 [MB-905, N6-furfurylaminopurine]
MB-905 level (Fig5A) ([1]; 140 mg/kg, 0.25 h): 544 and 555 and 638
MB-905 level (Fig5A) ([1]; 140 mg/kg, 1 h): 356 and 299 and 551
MB-905 level (Fig5A) ([1]; 140 mg/kg, 3 h): 447 and 177 and 154
MB-905 level (Fig5A) ([1]; 140 mg/kg, 8 h): 105 and 316 and 50
MB-905 level (Fig5A) ([1]; 140 mg/kg, 12 h): 0
MB-905 level (Fig5A) ([1]; 500 mg/kg, 0.25 h): 1228 and 1306 and 1348
MB-905 level (Fig5A) ([1]; 500 mg/kg, 1 h): 1348 and 946 and 1312
MB-905 level (Fig5A) ([1]; 500 mg/kg, 3 h): 894 and 544 and 652
MB-905 level (Fig5A) ([1]; 500 mg/kg, 8 h): 833 and 340 and 437
MB-905 level (Fig5A) ([1]; 500 mg/kg, 12 h): 103 and 13 and 0
AUC [1, 4]: 66.4 ng·h/mL
AUC(0-t) [1, 4]: 55.5 ng·h/mL
Cmax [1, 4]: 155 ng/mL
Tmax [1, 4]: 4.98 min
clearance [1, 4]: 918 mL/min/kg
half-life [1, 4]: 13.2 min
k el [1, 4]: 0.000858 s⁻¹
Vd ([1]; both sexes, CD1, mouse, plasma, iv, mice, 3 mg/kg (i.v.), read-out: Vz): 19 L/kg
bioavailability ([1]; both sexes, CD1, mouse, plasma, po, 30 mg/kg, mice, 30 mg/kg (p.o.), read-out: F): 53.5%
bioavailability ([1]; both sexes, CD1, mouse, plasma, po, 30 mg/kg, mice, read-out: Oral bioavailability): > 50%
bioavailability ([1]; both sexes, CD1, mouse, plasma, po, 550 mg/kg, mice, 550 mg/kg (p.o.), read-out: F): 36.1%
AUC [1, 5]: 356 ng·h/mL
AUC(0-t) [1, 5]: 356 ng·h/mL
Cmax [1, 5]: 570 ng/mL
Tmax [1, 5]: 4.98 min
half-life [1, 5]: 66.6 min
k el [1, 5]: 0.000172 s⁻¹
AUC [1, 6]: 4390 ng·h/mL
AUC(0-t) [1, 6]: 4390 ng·h/mL
Cmax [1, 6]: 1050 ng/mL
Tmax [1, 6]: 30 min
half-life [1, 6]: 163 min
k el [1, 6]: 6.94e-05 s⁻¹
CL ([1]; mice, 30 mg/kg (p.o.)): 1060.15 mL/min/kg
Vz ([1]; mice, 30 mg/kg (p.o.)): 102.21 L/kg
CL ([1]; mice, 550 mg/kg (p.o.)): 1843.18 mL/min/kg
Vz ([1]; mice, 550 mg/kg (p.o.)): 434.2 L/kg
NOAEL (in vivo): 500 mg/kg
MTD (in vivo; oral, read-out: Recommended dose for repeated exposure (MTD assay)): 550 mg/kg
LDH levels in bronchoalveolar lavage (BAL) (SARS-CoV-2 gamma VoC): decreased
Cytotoxicity and mutagenicity, preliminary assay TA 100 [2]: not observed
Tolerability [3]: tolerated MB-905 well
